Laboratory results from patent publication US11974988B2, “Neuroprotective compositions and methods of using the same” (The Board of Supervisors of Louisiana State Univer …, priority 2018, dated 2024).
≈ marks a conversion by molar mass, not a printed value. Where two headings read alike, the source gives them in different places.

Columns and labels:
[1] = test system: activity-regulated Gln/MeAIB transport (SNAT activity) in hippocampal neurons; assay: Activity-regulated (spontaneous, 4-AP- or K+-stimulated) [14C]-MeAIB transport in primary hippocampal neurons; format: cell-based, rat; conditions: for reduction of activity-regulated Gln/MeAIB transport after preconditioning: brief exposure (KCl 45 mM, Glu or NMDA), transport measured after 24 hr; for potency to inhibit activity-regulated MeAIB transport relative to a comparator, in words: spontaneous and 4-AP stimulated transport
[2] = Max. solubility (Table 1); format: physicochemical
[3] = Rattus norvegicus, Hippocampal neuron, 4-AP-stimulated (depolarization) [14C]-MeAIB uptake, DIV16, n in brackets, read-out: SNAT Activity IC50, 4-AP
[4] = Rattus norvegicus, Hippocampal neuron, spontaneous [14C]-MeAIB uptake, DIV 19, n in brackets, read-out: SNAT Activity IC50, Spont
[5] = Rattus norvegicus, Hippocampal neuron, hippocampal neurons in vitro, 14C-MeAIB 20 μM, read-out: IC50 to inhibit activity-regulated Gln/MeAIB transport

**Q.** With `Cc1ccc(-c2nc(N)sc2Br)c2ccccc12` as the compound, how does the “fold difference 4-AP IC50 over Spont IC50” value (“fold difference 4-AP IC50” for short) [1] read?
**A.** Its value is 4.4 x.

**Q.** And the IC50 [1, 3]?
**A.** Its IC50 is 4.4 µM.

**Q.** And the IC50 [1, 4]?
**A.** The IC50 was 1 µM.

**Q.** With `Nc1nc(-c2ccc(OC(F)(F)F)cc2)c(Cl)s1` as the compound, how does the “fold difference 4-AP IC50” value [1] read?
**A.** Its value is 1.6 x.

**Q.** And the IC50 [1, 3]?
**A.** The IC50 was 7.4 µM.

**Q.** What about the IC50 [1, 4] of the same compound?
**A.** Its IC50 is 4.6 µM.

**Q.** What does the source list for `Cc1ccc(-c2nc(N)sc2Cl)c2ccccc12`?
**A.** fold difference 4-AP IC50 over Spont IC50 [1]: 5.2 x; IC50 [1, 3]: 7.4 µM; IC50 [1, 4]: 1.4 µM

**Q.** For `Nc1nc(-c2ccc3ccccc3c2)c(F)s1`, which “fold difference 4-AP IC50” value [1] is on record?
**A.** Its value is 1.3 x.

**Q.** What about the IC50 [1, 3] of the same compound?
**A.** The IC50 was 17.9 µM.

**Q.** What about the IC50 [1, 4] of the same compound?
**A.** Its IC50 is 13.3 µM.

**Q.** For `Nc1ccncc1` [4-AP, 4-aminopyridine, reference compound], which “maximal stimulation of high-affinity 14C-MeAIB transport” value ([1]; 200 μM 4-AP) is on record?
**A.** Its value is ~2 ×.

**Q.** With `N[C@@H](CCC(=O)O)C(=O)O` [Glu, glutamate] as the compound, how does the “reduction of activity-regulated Gln/MeAIB transport after preconditioning” value [1] read?
**A.** Its value is ~50%.

**Q.** For `[Cl-].[K+]` [KCl], which “reduction of activity-regulated Gln/MeAIB transport after preconditioning” value [1] is on record?
**A.** Its value is ~50%.

**Q.** With `CN[C@H](CC(=O)O)C(=O)O` [NMDA, N-methyl-D-aspartate, reference compound] as the compound, how does the “reduction of activity-regulated Gln/MeAIB transport after preconditioning” value [1] read?
**A.** The value was ~50%.

**Q.** For `CCCCCCCCCCCCCC(=O)O[C@@H]1[C@@H](C)[C@@]2(O)[C@@H](C=C(CO)C[C@]3(O)C(=O)C(C)=C[C@@H]23)[C@@H]2C(C)(C)[C@]12OC(C)=O` [PMA, phorbal myristate acetate, reference compound], which “stimulation of 14C-MeAIB transport” value ([1]; PMA 10 min prior to KCl (60 mM) depolarization) is on record?
**A.** The value was “two-fold”.

**Q.** What does the source list for `Nc1nc(-c2cccc3ccccc23)cs1` [SKA-75, 4-(Naphthalen-1-yl)thiazol-2-amine]?
**A.** inhibition at 10 µM ([1]; Rattus norvegicus, Hippocampal neuron, at 10 μM, read-out: block / inhibition of transport activity): > 50%; inhibition of spontaneous activity-regulated 14C-MeAIB transport, in words ([1]; screens, 10 μM, GABA 2 mM): inhibited spontaneous transport activity; potency to inhibit activity-regulated MeAIB transport relative to a comparator, in words [1]: much less potent than riluzole; solubility [2]: 25 µM (≈ 5.66 µg/mL)

**Q.** For `Nc1nc(-c2ccc(F)cc2)cs1` [SKA-77], which solubility [2] is on record?
**A.** Its solubility is 100 µM (≈ 19.4 µg/mL).

**Q.** For `Nc1nc(-c2ccccc2)cs1` [SKA-78], which solubility [2] is on record?
**A.** The solubility was 100 µM (≈ 17.6 µg/mL).

**Q.** With `Cc1ccc(-c2csc(N)n2)cc1` [SKA-79] as the compound, how does the solubility [2] read?
**A.** Its solubility is 100 µM (≈ 19 µg/mL).

**Q.** With `Nc1nc(-c2ccc(Cl)cc2)cs1` [SKA-80] as the compound, how does the solubility [2] read?
**A.** The solubility was 50 µM (≈ 10.5 µg/mL).

**Q.** For `Cc1sc(N)nc1-c1ccccc1` [SKA-82], which solubility [2] is on record?
**A.** The solubility was 100 µM (≈ 19 µg/mL).

**Q.** For `Cc1nc(-c2ccccc2)cs1` [SKA-88], which solubility [2] is on record?
**A.** Its solubility is 100 µM (≈ 17.5 µg/mL).

**Q.** Which solubility [2] does the source give for `Nc1nc(-c2ccc(-c3ccccc3)cc2)cs1` [SKA-232] here?
**A.** Its solubility is 50 µM (≈ 12.6 µg/mL).

**Q.** With `Nc1nc(-c2ccc(-c3ccc(-c4csc(N)n4)cc3)cc2)cs1` [SKA-255] as the compound, how does the solubility [2] read?
**A.** The solubility was 10 µM (≈ 3.5 µg/mL).

**Q.** With `c1ccc(-c2csc(Nc3ccccn3)n2)cc1` [SKA-265, 4-Phenyl-N-(pyridin-2-yl)thiazol-2-amine] as the compound, how does the solubility [2] read?
**A.** The solubility was 50 µM (≈ 12.7 µg/mL).

**Q.** For `Nc1nc(-c2ccc3ccccc3c2)c(Cl)s1` [SKA-379, 5-Chloro-4-(naphthalen-2-yl)thiazol-2-amine], which “potency to inhibit activity-regulated MeAIB transport relative to a comparator, in words” value [1] is on record?
**A.** The value was “as active as SKA-219 and SKA-220, respectively”.

**Q.** Which results are given for `Cc1ccc(-c2csc(N)n2)c2ccccc12` [drawing 63]?
**A.** fold difference 4-AP IC50 over Spont IC50 [1]: 4.5 x; IC50 [1, 3]: 11.7 µM; IC50 [1, 4]: 2.6 µM

**Q.** What does the source list for `Nc1nc(-c2cccc3ccccc23)c(Cl)s1` [drawing 70]?
**A.** fold difference 4-AP IC50 over Spont IC50 [1]: 4.3 x; IC50 [1, 3]: 5.2 µM; IC50 [1, 4]: 1.2 µM

**Q.** What does the source list for `Nc1nc(-c2ccc3ccccc3c2)c(Cl)s1` [drawing 71]?
**A.** fold difference 4-AP IC50 over Spont IC50 [1]: 1.5 x; IC50 [1, 3]: 9.3 µM; IC50 [1, 4]: 6.2 µM

**Q.** With `Nc1nnc(-c2cccc(Cl)c2Cl)c(N)n1` [lamotrigine, reference compound] as the compound, how does the IC50 [1, 5] read?
**A.** Its IC50 is 20 µM.

**Q.** What does the source list for `O=C1NC(=O)C(c2ccccc2)(c2ccccc2)N1` [phenytoin, reference compound]?
**A.** potency of riluzole relative to phenytoin to inhibit activity-regulated Gln/MeAIB transport [1]: 50 ×; IC50 [1, 5]: 57 µM

**Q.** Which “effect on PMA stimulation of 14C-MeAIB transport” value ([1]; staurosporine 200 nM) does the source give for `CN[C@@H]1C[C@H]2O[C@@](C)([C@@H]1OC)n1c3ccccc3c3c4c(c5c6ccccc6n2c5c31)C(=O)NC4` [staurosporine, reference compound] here?
**A.** Its value is “abolished”.

**Q.** For `COc1ccc(CCN(C)CCCC(C#N)(c2ccc(OC)c(OC)c2)C(C)C)cc1OC` (stereo not drawn) [verapamil, reference compound], which “inhibition of spontaneous activity-regulated 14C-MeAIB transport, in words” value [1] is on record?
**A.** Its value is “blocked”.
